Values joined by “and” are separate entries in the source; they are usually repeats but may differ in a detail not shown here. Equal entries are not always repeated.
Assay: xn = mol fraction of the nth substance listed

CCCO + O
Conditions	viscosity
293.15 K, 100 kPa, x1 = 0.07	2.217 mPa·s
293.15 K, 100 kPa, x1 = 0.2	3.175 mPa·s and 3.013 mPa·s
293.15 K, 101 kPa, x1 = 0.01	1.156 mPa·s
293.15 K, 101 kPa, x1 = 0.02	1.335 mPa·s
293.15 K, 101 kPa, x1 = 0.05	1.898 mPa·s
293.15 K, 101 kPa, x1 = 0.07	2.209 mPa·s
293.15 K, 101 kPa, x1 = 0.1	2.545 mPa·s
293.15 K, 101 kPa, x1 = 0.2838	3.191 mPa·s
293.15 K, 101 kPa, x1 = 0.3	3.173 mPa·s
293.15 K, 101 kPa, x1 = 0.4	3.053 mPa·s
293.15 K, 101 kPa, x1 = 0.5	2.88 mPa·s
293.15 K, 101 kPa, x1 = 0.6	2.707 mPa·s
293.15 K, 101 kPa, x1 = 0.7001	2.537 mPa·s
293.15 K, 101 kPa, x1 = 0.8	2.403 mPa·s
298.15 K, 101 kPa, x1 = 0.0058	0.9625 mPa·s
298.15 K, 101 kPa, x1 = 0.01	1.024 mPa·s
298.15 K, 101 kPa, x1 = 0.02	1.16 mPa·s
298.15 K, 101 kPa, x1 = 0.0237	1.225 mPa·s
298.15 K, 101 kPa, x1 = 0.0461	1.552 mPa·s
298.15 K, 101 kPa, x1 = 0.05	1.603 mPa·s
298.15 K, 101 kPa, x1 = 0.0678	1.82 mPa·s
298.15 K, 101 kPa, x1 = 0.07	1.844 mPa·s
298.15 K, 101 kPa, x1 = 0.0976	2.164 mPa·s
298.15 K, 101 kPa, x1 = 0.1195	2.263 mPa·s
298.15 K, 101 kPa, x1 = 0.1833	2.576 mPa·s
298.15 K, 101 kPa, x1 = 0.2398	2.682 mPa·s
298.15 K, 101 kPa, x1 = 0.2838	2.685 mPa·s
298.15 K, 101 kPa, x1 = 0.3108	2.702 mPa·s
298.15 K, 101 kPa, x1 = 0.4	2.592 mPa·s
298.15 K, 101 kPa, x1 = 0.4971	2.511 mPa·s
298.15 K, 101 kPa, x1 = 0.5	2.465 mPa·s
298.15 K, 101 kPa, x1 = 0.6	2.333 mPa·s
298.15 K, 101 kPa, x1 = 0.6916	2.236 mPa·s
298.15 K, 101 kPa, x1 = 0.7001	2.202 mPa·s
298.15 K, 101 kPa, x1 = 0.8	2.097 mPa·s
298.15 K, 101 kPa, x1 = 0.8011	2.129 mPa·s
298.15 K, 101 kPa, x1 = 0.8967	2.039 mPa·s
298.15 K, 101 kPa, x2 = 0.0021	1.985 mPa·s
298.15 K, 101 kPa, x2 = 0.0695	2.041 mPa·s
298.15 K, 101 kPa, x2 = 0.0932	2.063 mPa·s
298.15 K, 101 kPa, x2 = 0.1232	2.085 mPa·s
298.15 K, 101 kPa, x2 = 0.1439	2.104 mPa·s
298.15 K, 101 kPa, x2 = 0.1892	2.142 mPa·s
298.15 K, 101 kPa, x2 = 0.2084	2.16 mPa·s
298.15 K, 101 kPa, x2 = 0.9678	1.11 mPa·s
298.15 K, 101.3 kPa, x1 = 0.01	1.027 mPa·s
298.15 K, 101.3 kPa, x1 = 0.025	1.247 mPa·s
298.15 K, 101.3 kPa, x1 = 0.045	1.55 mPa·s
298.15 K, 101.3 kPa, x1 = 0.065	1.81 mPa·s
298.15 K, 101.3 kPa, x1 = 0.08	1.969 mPa·s
303.15 K, 101 kPa, x1 = 0.01	0.906 mPa·s
303.15 K, 101 kPa, x1 = 0.02	1.019 mPa·s
303.15 K, 101 kPa, x1 = 0.05	1.366 mPa·s
303.15 K, 101 kPa, x1 = 0.07	1.555 mPa·s
303.15 K, 101 kPa, x1 = 0.1	1.786 mPa·s
303.15 K, 101 kPa, x1 = 0.2838	2.277 mPa·s
303.15 K, 101 kPa, x1 = 0.3	2.267 mPa·s
303.15 K, 101 kPa, x1 = 0.4	2.216 mPa·s
303.15 K, 101 kPa, x1 = 0.5	2.118 mPa·s
303.15 K, 101 kPa, x1 = 0.6	2.023 mPa·s
303.15 K, 101 kPa, x1 = 0.7001	1.92 mPa·s
303.15 K, 101 kPa, x2 = 0.0998	1.794 mPa·s
303.15 K, 101 kPa, x2 = 0.2	1.852 mPa·s
303.15 K, 101 kPa, x2 = 0.2998	1.94 mPa·s
303.15 K, 101 kPa, x2 = 0.5001	2.135 mPa·s
303.15 K, 101 kPa, x2 = 0.6996	2.273 mPa·s
303.15 K, 101 kPa, x2 = 0.7953	2.212 mPa·s
303.15 K, 101 kPa, x2 = 0.8997	1.795 mPa·s
303.15 K, 101 kPa, x2 = 0.9401	1.463 mPa·s
303.15 K, 101 kPa, x2 = 0.98	1.025 mPa·s
308.15 K, 101 kPa, x1 = 0.01	0.81 mPa·s
308.15 K, 101 kPa, x1 = 0.02	0.912 mPa·s
308.15 K, 101 kPa, x1 = 0.05	1.187 mPa·s
308.15 K, 101 kPa, x1 = 0.07	1.342 mPa·s
308.15 K, 101 kPa, x1 = 0.1	1.53 mPa·s
308.15 K, 101 kPa, x1 = 0.2838	1.951 mPa·s
308.15 K, 101 kPa, x1 = 0.3	1.953 mPa·s
308.15 K, 101 kPa, x1 = 0.4	1.915 mPa·s
308.15 K, 101 kPa, x1 = 0.5	1.84 mPa·s
308.15 K, 101 kPa, x1 = 0.6	1.765 mPa·s
308.15 K, 101 kPa, x1 = 0.7001	1.686 mPa·s
308.15 K, 101 kPa, x1 = 0.8	1.623 mPa·s
308.15 K, 101 kPa, x2 = 0.9678	0.9401 mPa·s
313.15 K, 101 kPa, x1 = 0.01	0.728 mPa·s
313.15 K, 101 kPa, x1 = 0.02	0.807 mPa·s
313.15 K, 101 kPa, x1 = 0.05	1.039 mPa·s
313.15 K, 101 kPa, x1 = 0.07	1.167 mPa·s
313.15 K, 101 kPa, x1 = 0.1	1.33 mPa·s
313.15 K, 101 kPa, x1 = 0.2	1.625 mPa·s
313.15 K, 101 kPa, x1 = 0.2838	1.69 mPa·s
313.15 K, 101 kPa, x1 = 0.3	1.692 mPa·s
313.15 K, 101 kPa, x1 = 0.5	1.61 mPa·s
313.15 K, 101 kPa, x1 = 0.6	1.547 mPa·s
313.15 K, 101 kPa, x1 = 0.7001	1.485 mPa·s
318.15 K, 101 kPa, x1 = 0.01	0.659 mPa·s
318.15 K, 101 kPa, x1 = 0.02	0.726 mPa·s
318.15 K, 101 kPa, x1 = 0.05	0.919 mPa·s
318.15 K, 101 kPa, x1 = 0.07	1.027 mPa·s
318.15 K, 101 kPa, x1 = 0.1	1.164 mPa·s
318.15 K, 101 kPa, x1 = 0.2	1.42 mPa·s
318.15 K, 101 kPa, x1 = 0.3	1.479 mPa·s
318.15 K, 101 kPa, x1 = 0.4	1.46 mPa·s
318.15 K, 101 kPa, x1 = 0.5	1.416 mPa·s
318.15 K, 101 kPa, x1 = 0.6	1.366 mPa·s
318.15 K, 101 kPa, x1 = 0.7001	1.315 mPa·s
318.15 K, 101 kPa, x2 = 0.9678	0.819 mPa·s
323.15 K, 100 kPa, x1 = 0.07	0.917 mPa·s
323.15 K, 100 kPa, x1 = 0.2	1.212 mPa·s
323.15 K, 100 kPa, x1 = 0.3	1.314 mPa·s
323.15 K, 101 kPa, x1 = 0.01	0.6 mPa·s
323.15 K, 101 kPa, x1 = 0.02	0.657 mPa·s
323.15 K, 101 kPa, x1 = 0.05	0.82 mPa·s
323.15 K, 101 kPa, x1 = 0.07	0.912 mPa·s
323.15 K, 101 kPa, x1 = 0.1	1.03 mPa·s
323.15 K, 101 kPa, x1 = 0.2	1.25 mPa·s
323.15 K, 101 kPa, x1 = 0.5	1.252 mPa·s
323.15 K, 101 kPa, x1 = 0.6	1.212 mPa·s
323.15 K, 101 kPa, x1 = 0.7001	1.171 mPa·s
